In ChEMBL document CHEMBL3352684, “Discovery of MK-3697: a selective orexin 2 receptor antagonist (2-SORA) for the treatment of insomnia” (Bioorg Med Chem Lett, 2014):
Residue numbers refer to the chain shown, from its start. Calls of active or inactive are those of the source. The calls are words filed in the database; no cut-off is given here.

Columns and labels:
[1] = Apparent permeability of the compound; type: physicochemical; conditions: not told
[2] = system: Mus musculus; experiment: Increase in slow wave sleep in OX2R-knockout mouse at 100 mg/kg, po after 2 hrs; type: functional, organism-based; set-up: dose 100 mg/kg
[3] = Plasma protein binding in dog; type: ADME, cell-free, Canis lupus familiaris; conditions: read-out: PPB (converted)
[4] = species on record: Rattus norvegicus; experiment: Ex vivo receptor occupancy at human OX2R expressed in transgenic rat at plasma concentration of 1.06 uM; type: functional
[5] = biological target: Cytochrome P450 2C9 (Homo sapiens, UniProt P11712); experiment: Reversible inhibition of CYP2C9 (unknown origin); type: ADME
Sequence of Cytochrome P450 2C9 (P11712 whole entry): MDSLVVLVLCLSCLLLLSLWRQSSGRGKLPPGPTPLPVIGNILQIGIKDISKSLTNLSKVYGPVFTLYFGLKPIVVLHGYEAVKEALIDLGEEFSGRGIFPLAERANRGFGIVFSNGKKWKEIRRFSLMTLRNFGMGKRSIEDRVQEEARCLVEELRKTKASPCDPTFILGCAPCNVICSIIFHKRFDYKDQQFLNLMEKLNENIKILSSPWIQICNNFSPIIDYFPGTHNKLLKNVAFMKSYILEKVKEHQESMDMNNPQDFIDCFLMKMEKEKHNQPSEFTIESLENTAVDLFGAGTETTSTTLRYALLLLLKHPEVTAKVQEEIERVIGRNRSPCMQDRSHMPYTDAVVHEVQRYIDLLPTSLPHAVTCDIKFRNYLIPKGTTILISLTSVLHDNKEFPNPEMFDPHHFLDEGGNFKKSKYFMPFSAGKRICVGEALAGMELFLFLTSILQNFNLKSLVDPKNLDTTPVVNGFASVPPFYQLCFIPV

[6] = Tmax in Sprague-Dawley rat at 15 mg/kg, po; type: ADME, organism-based; set-up: dose 15 mg/kg, route oral; conditions: in vivo
[7] = biological target: T1, Orexin receptor type 2 (Canis lupus familiaris) (UniProt Q9TUP7); experiment: Antagonist activity at dog OX2R by FLIPR assay
T1 sequence (whole entry): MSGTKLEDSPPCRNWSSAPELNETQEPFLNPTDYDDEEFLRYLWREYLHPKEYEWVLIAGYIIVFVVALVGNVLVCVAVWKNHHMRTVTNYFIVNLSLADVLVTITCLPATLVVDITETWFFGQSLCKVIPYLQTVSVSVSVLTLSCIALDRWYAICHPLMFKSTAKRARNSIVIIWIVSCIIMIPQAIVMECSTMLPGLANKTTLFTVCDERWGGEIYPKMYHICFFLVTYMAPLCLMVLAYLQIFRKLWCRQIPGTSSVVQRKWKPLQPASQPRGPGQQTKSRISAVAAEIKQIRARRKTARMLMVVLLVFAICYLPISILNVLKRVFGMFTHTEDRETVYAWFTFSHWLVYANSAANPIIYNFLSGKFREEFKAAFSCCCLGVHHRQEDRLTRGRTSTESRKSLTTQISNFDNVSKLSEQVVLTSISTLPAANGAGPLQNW

[8] = system: Rattus norvegicus; experiment: Reduction in active wake sleep in Sprague-Dawley rat at 15 mg/kg, po after 2 hrs; type: functional, organism-based; set-up: dose 15 mg/kg
[9] = AUC in dog at 3 mg/kg, po; type: ADME, organism-based, Canis lupus familiaris; set-up: dose 3 mg/kg, route oral; conditions: plasma
[10] = system: Mus musculus; experiment: Increase in rapid eye movement sleep in mouse at 100 mg/kg, po after 2 hrs; type: functional, organism-based; set-up: dose 100 mg/kg
[11] = system: Canis familiaris; experiment: Reduction in active wake sleep in dog at 3 mg/kg, po after 2 hrs; type: functional, organism-based; set-up: dose 3 mg/kg; conditions: Canis lupus familiaris
[12] = Tmax in rat at 5 mg/kg, po; type: ADME, organism-based; set-up: dose 5 mg/kg, route oral; conditions: in vivo
[13] = Oral bioavailability in rat at 5 mg/kg; type: ADME, organism-based; conditions: in vivo
[14] = Cmax in rat at 5 mg/kg, po; type: ADME, organism-based; set-up: dose 5 mg/kg, route oral; conditions: in vivo
[15] = Plasma protein binding in human; type: ADME, cell-free; conditions: read-out: PPB (converted)
[16] = biological target: T2, Orexin receptor type 2 (Mus musculus) (UniProt P58308); experiment: Antagonist activity at mouse OX2R by FLIPR assay
T2 sequence (whole entry): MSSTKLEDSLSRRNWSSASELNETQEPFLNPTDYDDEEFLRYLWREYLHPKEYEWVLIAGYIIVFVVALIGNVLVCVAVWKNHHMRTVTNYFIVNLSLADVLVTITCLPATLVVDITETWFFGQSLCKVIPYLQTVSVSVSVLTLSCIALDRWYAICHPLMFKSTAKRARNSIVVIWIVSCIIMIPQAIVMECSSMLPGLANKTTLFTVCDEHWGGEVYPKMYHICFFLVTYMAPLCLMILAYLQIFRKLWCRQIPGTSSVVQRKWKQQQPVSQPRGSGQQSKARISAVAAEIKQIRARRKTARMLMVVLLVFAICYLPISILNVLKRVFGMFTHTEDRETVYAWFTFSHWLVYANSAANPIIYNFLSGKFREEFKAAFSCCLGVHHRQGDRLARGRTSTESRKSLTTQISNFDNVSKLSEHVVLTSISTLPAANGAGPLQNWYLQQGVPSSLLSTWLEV

[17] = Oral bioavailability in […] dog at 3 mg/kg; type: ADME, organism-based, Canis lupus familiaris; conditions: in vivo
[18] = biological target: T3, Orexin/Hypocretin receptor type 1 (Rattus norvegicus) (UniProt P56718); experiment: Antagonist activity at Sprague-Dawley rat OX1R by FLIPR assay
T3 sequence (whole entry): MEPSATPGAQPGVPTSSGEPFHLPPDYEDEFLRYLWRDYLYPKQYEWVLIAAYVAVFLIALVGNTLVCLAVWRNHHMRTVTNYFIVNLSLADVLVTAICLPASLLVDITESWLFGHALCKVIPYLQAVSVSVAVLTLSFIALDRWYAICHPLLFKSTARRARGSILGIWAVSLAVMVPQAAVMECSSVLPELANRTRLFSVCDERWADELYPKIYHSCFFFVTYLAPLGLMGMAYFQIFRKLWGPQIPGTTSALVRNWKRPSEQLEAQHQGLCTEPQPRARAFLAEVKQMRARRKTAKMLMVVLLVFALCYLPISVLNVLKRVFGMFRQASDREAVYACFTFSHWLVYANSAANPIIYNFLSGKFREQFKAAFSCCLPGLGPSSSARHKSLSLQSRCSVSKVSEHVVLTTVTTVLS

[19] = Tmax in dog at 3 mg/kg, po; type: ADME, organism-based, Canis lupus familiaris; set-up: dose 3 mg/kg, route oral; conditions: in vivo
[20] = system: Canis familiaris; experiment: Increase in rapid eye movement sleep in dog at 3 mg/kg, po after 3.5 hrs; type: functional, organism-based; set-up: dose 3 mg/kg; conditions: Canis lupus familiaris
[21] = species on record: Canis lupus familiaris; experiment: Antagonist activity at dog OX1R by FLIPR assay
[22] = Cmax in rat at dog at 3 mg/kg, po; type: ADME, organism-based, Canis lupus familiaris; set-up: dose 3 mg/kg, route oral; conditions: in vivo
[23] = biological target: T4, Orexin receptor type 2 (Rattus norvegicus) (UniProt P56719); experiment: Antagonist activity at Sprague-Dawley rat OX2R by FLIPR assay
T4 sequence (whole entry): T2 sequence (whole entry) with S11P, C193R, H213R, I240V, Q269P, H387R, V424A

[24] = AUC (0 to infinity) in rat at 5 mg/kg, po; type: ADME, organism-based; set-up: time infinity, dose 5 mg/kg, route oral; conditions: plasma
[25] = system: Rattus norvegicus; experiment: Increase in rapid eye movement sleep in Sprague-Dawley rat at 15 mg/kg, po after 2 hrs; type: functional, organism-based; set-up: dose 15 mg/kg
[26] = AUC (0 to infinity) in dog at 3 mg/kg, po; type: ADME, organism-based, Canis lupus familiaris; set-up: time infinity, dose 3 mg/kg, route oral; conditions: plasma
[27] = system: Mus musculus; experiment: Increase in rapid eye movement sleep in OX2R-knockout mouse at 100 mg/kg, po after 2 hrs; type: functional, organism-based; set-up: dose 100 mg/kg

With `COc1ccc(CNC(=O)c2cc(-c3cncc(C)c3)ncc2-c2nccs2)nc1OC` the Papp [1] was 33 ×10⁻⁶ cm/s, the Activity [2] was “inactive” and the fraction unbound [3] was 0.169. For the same compound, the Occ [4] was 90%, the IC50 [5] was > 50 µM and the Tmax [6] was 48 min. For the same compound, the INH [7] was 16 nM, the Activity [8] was “Active” and the AUC [9] was 9 µM·h. The Activity [10] was “Active”, the Activity [11] was “Active” and the Tmax [12] was 18 min. For the same compound, the bioavailability [13] was 64%, the Cmax [14] was 2100 nM and the fraction unbound [15] was 0.04. It also gave an INH [16] of 12 nM, a bioavailability [17] of 49% and an INH [18] of 36.4 µM. For the same compound, the Tmax [19] was 60 min, the Activity [20] was “Active” and the INH [21] was 10 µM. The Cmax [22] was 2100 nM, the INH [23] was 31 nM and the AUC(0-inf) [24] was 3 µM·h. For the same compound, the Activity [25] was “Active”, the AUC(0-inf) [26] was 7.5 µM·h and the Activity [27] was “inactive”.
